Like-named read-outs stand apart in the source and are kept apart here.
What was measured:
JNK1 [1] = biological target: T1, JNK1 (Homo sapiens, UniProt P45983); assay: KINOMEscan Kd determination, JNK1; conditions: duplicate, mean, N.B. = no binding at < 30 μM
T1 construct: purchased Eurofins Pharma Discovery (KINOMEscan)
Protocol: (§1) Selected compounds were submitted for dissociation constant (Kd) determination using KINOMEscan (Eurofins Pharma Discovery, San Diego, CA, USA), as described previously. […] Primary screening at fixed concentrations of compounds was performed in duplicate.

[2] = CellTiter-Glo cytotoxicity in MonoMac-6 cells; assay type: cell-based, human; conditions: human, MonoMac-6 cells; 24-h incubation, up to 50 μM; read-out: MonoMac-6 Cell Cytotoxicity IC50
Protocol: (§2) All cells were cultured at 37 °C in a humidified atmosphere containing 5% CO2. THP1-Blue cells obtained from InvivoGen (San Diego, CA, USA) were cultured in RPMI 1640 medium (Mediatech Inc., Herndon, VA, USA) supplemented with 10% (v/v) fetal bovine serum (FBS), 100 μg/mL streptomycin, 100 U/mL penicillin, 100 μg/mL phleomycin (Zeocin), and 10 μg/mL blasticidin S. Human monocyte-macrophage MonoMac-6 cells (Deutsche Sammlung von Mikroorganismen und Zellkulturen GmbH, Braunschweig, Germany) were grown in RPMI 1640 medium supplemented with 10% (v/v) FBS, 10 μg/mL bovine insulin, 100 μg/mL streptomycin, and 100 U/mL penicillin.
(§3) Cytotoxicity was analyzed with a CellTiter-Glo Luminescent Cell Viability Assay Kit from Promega (Madison, WI, USA), according to the manufacturer’s protocol. Cells were treated with compounds under investigation and incubated for 24 h. After treatment, the cells were equilibrated to room temperature for 30 min, substrate was added, and the samples were analyzed with a Fluoroscan Ascent FL (Thermo Fisher Scientific, Waltham, MA, USA). The IC50 values were calculated by plotting percentage inhibition against the logarithm of inhibitor concentration (at least five points).

IL-6 = assay: LPS-induced IL-6 production in MonoMac-6 cells (ELISA); assay type: cell-based; conditions: Homo sapiens, MONO-MAC-6; 30 min pretreatment, 250 ng/mL LPS for 24 h; read-out: MonoMac-6 Cell IL-6 IC50
Protocol: as §2
A human IL-6 ELISA kit (BD Biosciences, San Jose, CA, USA) was measure IL-6 production. MonoMac-6 cells were plated in 96-well plates at a density of 2 × 10^5 cells/well in culture medium supplemented with 3% (v/v) endotoxin-free FBS. The cells were pretreated with test compound or DMSO for 30 min, followed by addition of 250 ng/mL LPS for 24 h. IC50 values for IL-6 production were calculated by plotting percentage inhibition against the logarithm of inhibitor concentration (at least five points).

JNK2 [3] = biological target: T2, JNK2 (Homo sapiens, UniProt P45984); assay: KINOMEscan Kd determination, JNK2; conditions: duplicate, mean, N.B. = no binding at < 30 μM
T2 construct: purchased Eurofins Pharma Discovery (KINOMEscan)
T2 sequence (P45984 whole entry): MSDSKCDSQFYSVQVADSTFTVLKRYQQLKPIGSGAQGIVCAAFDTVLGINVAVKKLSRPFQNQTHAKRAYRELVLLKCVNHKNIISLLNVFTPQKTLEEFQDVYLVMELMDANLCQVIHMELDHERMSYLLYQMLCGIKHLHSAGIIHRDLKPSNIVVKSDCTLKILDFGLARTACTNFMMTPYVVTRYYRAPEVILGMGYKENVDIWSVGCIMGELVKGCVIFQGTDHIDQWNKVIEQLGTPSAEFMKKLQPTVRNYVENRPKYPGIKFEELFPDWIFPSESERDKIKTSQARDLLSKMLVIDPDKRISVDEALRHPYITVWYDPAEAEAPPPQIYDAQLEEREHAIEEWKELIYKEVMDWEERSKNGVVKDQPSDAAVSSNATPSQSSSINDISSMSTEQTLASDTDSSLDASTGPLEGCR
Protocol: as §1

JNK1-3 = assay: KINOMEscan binding, statements for all three JNK isoforms; conditions: summary of Table 3
Protocol: as §1

[4] = CellTiter-Glo cytotoxicity in THP-1Blue cells; assay type: cell-based, human; conditions: human, THP-1Blue cells; 24-h incubation, up to 50 μM; read-out: THP-1Blue Cell Cytotoxicity IC50
Protocol: as §2, §3

THP-1Blue cells = assay: CellTiter-Glo cytotoxicity in THP-1Blue cells; assay type: cell-based, human; conditions: 24-h incubation, up to 50 μM
Protocol: as §2, §3

JNK3 [5] = biological target: T3, JNK3 (Homo sapiens, UniProt P53779); assay: KINOMEscan Kd determination, JNK3; conditions: duplicate, mean, N.B. = no binding at < 30 μM
T3 construct: purchased Eurofins Pharma Discovery (KINOMEscan)
T3 sequence (P53779 whole entry): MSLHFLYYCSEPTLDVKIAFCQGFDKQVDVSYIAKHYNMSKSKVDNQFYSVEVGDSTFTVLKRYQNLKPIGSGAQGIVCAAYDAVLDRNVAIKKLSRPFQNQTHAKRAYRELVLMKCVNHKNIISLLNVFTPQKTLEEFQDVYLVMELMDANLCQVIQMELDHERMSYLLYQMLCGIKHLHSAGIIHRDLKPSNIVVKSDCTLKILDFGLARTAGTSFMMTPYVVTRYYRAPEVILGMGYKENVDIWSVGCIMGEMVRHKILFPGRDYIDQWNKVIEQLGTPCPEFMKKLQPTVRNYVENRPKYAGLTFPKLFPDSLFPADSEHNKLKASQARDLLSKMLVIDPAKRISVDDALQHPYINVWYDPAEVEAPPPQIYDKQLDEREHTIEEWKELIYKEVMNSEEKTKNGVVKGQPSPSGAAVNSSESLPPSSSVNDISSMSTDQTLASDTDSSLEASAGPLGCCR
Protocol: as §1

JNK2 [6] = biological target: T2, JNK2; conditions: previously identified inhibitors; ref [35],[36]; cited from earlier work
JNK1 [7] = biological target: T1, JNK1; conditions: previously identified inhibitors; ref [35],[36]; cited from earlier work
JNK3 [8] = biological target: T3, JNK3; conditions: previously identified inhibitors; ref [35],[36]; cited from earlier work
NF-κB/AP-1 = assay: LPS-induced NF-κB/AP-1 alkaline phosphatase reporter assay in THP1-Blue cells; assay type: cell-based; conditions: Homo sapiens; 30 min pretreatment, 250 ng/mL LPS for 24 h; read-out: THP-1Blue Cell NF-κB/AP-1 IC50
Protocol: as §2
Activation of AP-1/NF-κB was measured using an alkaline phosphatase reporter gene assay in THP1-Blue cells. Human monocytic THP-1 Blue cells are stably transfected with a secreted embryonic alkaline phosphatase gene that is under the control of a promoter inducible by NF-κB/AP-1. THP1-Blue cells (2 × 10^5 cells/well) were pretreated with test compound or DMSO for 30 min, followed by addition of 250 ng/mL lipopolysaccharide (LPS) for 24 h, and alkaline phosphatase activity was measured in cell supernatants using QUANTI-Blue mix (InvivoGen) as absorbance at 655 nm and compared with positive control samples (LPS). For selected compounds, the concentrations of inhibitor that caused 50% inhibition of the NF-κB reporter activity (IC50) were calculated.

MonoMac-6 cells = assay: CellTiter-Glo cytotoxicity in MonoMac-6 cells; assay type: cell-based, human; conditions: 24-h incubation, up to 50 μM
Protocol: as §2, §3

T1 sequence (P45983 whole entry): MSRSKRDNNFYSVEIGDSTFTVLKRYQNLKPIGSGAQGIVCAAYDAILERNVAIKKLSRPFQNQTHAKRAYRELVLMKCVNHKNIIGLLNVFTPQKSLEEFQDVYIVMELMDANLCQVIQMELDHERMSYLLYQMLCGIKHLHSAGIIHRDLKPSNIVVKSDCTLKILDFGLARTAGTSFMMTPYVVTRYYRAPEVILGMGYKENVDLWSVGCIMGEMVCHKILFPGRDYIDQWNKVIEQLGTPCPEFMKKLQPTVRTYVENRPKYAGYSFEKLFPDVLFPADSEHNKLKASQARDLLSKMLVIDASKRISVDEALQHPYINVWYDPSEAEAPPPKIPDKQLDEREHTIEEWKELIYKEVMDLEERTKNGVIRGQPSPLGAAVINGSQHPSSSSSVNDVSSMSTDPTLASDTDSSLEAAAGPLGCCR

Row | Structure (SMILES) | Kd (JNK1 [1]) [nM] | IC50 at 24 h [2] [nM] | IC50 (IL-6) [nM] | melting point [°C] | Kd (JNK2 [3]) [nM] | Binding affinity (Kd) for all three JNK isoforms, in words (JNK1-3) | IC50 at 24 h [4] [nM] | THP-1Blue Cell Cytotoxicity IC50 (THP-1Blue cells) | Kd (JNK3 [5]) [nM] | Kd (JNK2 [6]) [nM] | Kd (JNK1 [7]) [nM] | Kd (JNK3 [8]) [nM] | IC50 (NF-κB/AP-1) [nM] | MonoMac-6 Cell Cytotoxicity IC50 (MonoMac-6 cells)
1 | COC(=O)c1ccc2nc3c(nc2c1)C(=NO)c1ccccc1-3 [Compound 4l, Methyl-11-(hydroxyimino)-11H-indeno[1,2-b]quinoxaline-8-carboxylate] | 910 ± 160 | > 50000 | > 50000 | 300 to 301 | 2400 ± 200 | submicromolar | 26100 ± 5300 | exhibited cytotoxicity | 710 ± 50 |  |  |  |  | 
2 | O/N=C1/c2ccccc2-c2nc3ccc(Cl)cc3nc21 [C] |  |  |  |  |  |  |  |  |  | 21500 | 1100 | 700 |  | 
3 | ON=C1c2ccccc2-c2nc3c(Cl)cccc3nc21 [Compound 4b, 6-Chloro-11H-indeno[1,2-b]quinoxalin-11-one Oxime] | 170 ± 40 | > 50000 | 1200 ± 400 | 270 to 271 | 220 ± 60 | submicromolar | > 50000 |  | 140 ± 30 |  |  |  | 900 ± 300 | 
4 | O/N=C1/c2ccccc2-c2nc3c(Cl)cc(C(F)(F)F)cc3nc21 [Compound 4i, (11Z/E)-6-Chloro-8-(trifluoromethyl)-11H-indeno[1,2-b]quinoxalin-11-one Oxime] | > 30000 | > 50000 | 6200 ± 200 | 324 to 325 | > 30000 | inactive | > 50000 |  | > 30000 |  |  |  | 2900 ± 900 | 
5 | Cc1cc(Br)cc2nc3c(nc12)-c1ccccc1C3=NO [Compound 4c, 6-Methyl-8-bromo-11H-indeno[1,2-b]quinoxalin-11-one Oxime] | > 30000 | 14600 ± 1200 |  | 255 to 256 | > 30000 | inactive | 37500 ± 1700 | exhibited cytotoxicity | > 30000 |  |  |  |  | cytotoxic
6 | ON=C1c2ccccc2-c2nc3cc(F)ccc3nc21 [Compound 4a, 7-Fluoro-11H-indeno[1,2-b]quinoxalin-11-one Oxime] | 280 ± 70 | > 50000 | 3000 ± 600 | 250 to 251 | 620 ± 10 | submicromolar | > 50000 |  | 190 ± 10 |  |  |  | 300 ± 100 | 
7 | ON=C1c2ccccc2-c2nc3c(F)cc(F)cc3nc21 [Compound 4e, 6,8-Difluoro-11H-indeno[1,2-b]quinoxalin-11-one Oxime] | 920 ± 50 | > 50000 | 2200 ± 200 | 255 to 256 | 1600 ± 10 | submicromolar | > 50000 |  | 900 ± 300 |  |  |  | 400 ± 100 | 
8 | ON=C1c2ccccc2-c2nc3c(C(F)(F)F)cc(C(F)(F)F)cc3nc21 [Compound 4j, 6,8-bis(Trifluoromethyl)-11H-indeno[1,2-b]quinoxalin-11-one oxime] | > 30000 | > 50000 | 4800 ± 500 | 253 to 254 | > 30000 | inactive | 36500 ± 1900 | exhibited cytotoxicity | > 30000 |  |  |  |  | 
9 | CC(C)(C)c1ccc2nc3c(nc2c1)-c1ccccc1/C3=N/O [Compound 4d, (11Z/E)-7-tert-Butyl-11H-indeno[1,2-b]quinoxalin-11-one Oxime] | 3100 ± 100 | > 50000 | 1000 ± 200 | 197 to 198 | 1600 ± 600 | relatively low affinity | > 50000 |  | 3100 ± 200 |  |  |  | 400 ± 100 | 
10 | ON=C1c2ccccc2-c2nc3c(F)c(F)ccc3nc21 [Compound 4g, 6,7-Difluoro-11H-indeno[1,2-b]quinoxalin-11-one Oxime] | 520 ± 90 | 32000 ± 2200 |  | 257 to 258 | 910 ± 60 |  | > 50000 |  | 1100 ± 100 |  |  |  | 2100 ± 400 | cytotoxic
11 | ON=C1c2ccccc2-c2nc3cc(F)c(Cl)cc3nc21 [Compound 4k, 8-Chloro-7-fluoro-11H-indeno[1,2-b]quinoxalin-11-one Oxime] | > 30000 | > 50000 | 2300 ± 400 | 276 to 277 | > 30000 |  | > 50000 |  | 24500 ± 2100 |  |  |  | 600 ± 200 | 
12 | O=[N+]([O-])c1ccc2nc3c(nc2c1)-c1ccccc1/C3=N/O [B] |  |  |  |  |  |  |  |  |  | 12000 | 6000 | 4300 |  | 
13 | Cc1ccc2nc3c(nc2c1)-c1ccccc1/C3=N/O [D] |  |  |  |  |  |  |  |  |  | 800 | 700 | 300 |  | 
14 | ON=C1c2ccccc2-c2nc3c(Br)cc(C(F)(F)F)cc3nc21 [Compound 4h, 6-Bromo-8-(trifluoromethyl)-11H-indeno[1,2-b]quinoxalin-11-one Oxime] | > 30000 | 29000 ± 2500 |  | 236 to 237 | > 30000 | inactive | > 50000 |  | > 30000 |  |  |  | 2500 ± 600 | cytotoxic

From PMC8464905, “Novel c-Jun N-Terminal Kinase (JNK) Inhibitors with an 11H-Indeno[1,2-b]quinoxalin-11-one Scaffold” (Molecules, 2021)
